Laboratory results reported in patent US20260207615A1, “FLUOROPYRIDOPYRIMIDINE AND FLUOROQUINAZOLINE DERIVATIES AND METHODS OF USE THEREOF” (Frontier Medicines Corporation, priority 2022, published 2026).
pIC50: −log10 of the molar value.

Molecular target: T1, KRAS G12C and cRAF interaction (Homo sapiens, UniProt P01116, C118S/C51S/C80L/G12C)
T1 construct: truncated version comprising amino acids 1-169
Assay: Inhibition of KRAS G12C and cRAF binding (AlphaScreen)
Type: biochemical
Details: KRAS G12C (Cys-light, aa 1-169) preloaded with GMPPNP, cRaf RBD (aa 50-131), 2 hours incubation
Description: The AlphaScreen technology was used to determine IC50s for compound inhibition of KRAS G12C (present as the Cys-light (C51S, C80L and C118S), truncated version comprising amino acids 1-169) and cRAF interaction. Compounds were diluted in 100% DMSO and each compound concentration was spotted at 200 nl/well onto low volume, white 384 well plates. The KRAS G12C contained a biotin-AviTag and the cRaf, as Ras-binding domain (amino acids 50-131, RBD), was GST-tagged. KRAS G12C was preloaded with the GTP analogue Guanosine 5′-[β,γ-imido]triphosphate (GMPPNP). The KRAS G12C was diluted in 25 mM Hepes, pH 7.4, 150 mM NaCl, 5 mM MgCl2, 0.01% TritonX-100 and 10 μM GMPPNP and added at 10 μl/well to compound-spotted plates resulting in a DMSO concentration of 2%. Plates were incubated for 2 hours. A mixture of RBD and the AlphaScreen streptavidin donor and glutathione acceptor beads diluted in 25 mM Hepes, pH 7.4, 150 mM NaCl, 5 mM MgCl2, 0.01% TritonX-100 and 2% DMSO was then added at 10 μl/well and incubated for 60-90 minutes before the samples were read for emission at 570 nm after excitation of the donor beads at 680 nm. All incubations were performed at room temperature. The final top compound concentration was 50 μM with 1:3 titrations for 10-point dose response curves. Final assay conditions were 0.5 nM KRAS G12C, 0.75 nM RBD and 5 μg/ml each of AlphaScreen donor and acceptor beads. IC50S were determined using nonlinear regression fit of [inhibitor] vs. response (4 parameters).
A counter assay was also set up to rule out inhibitors of the AlphaScreen technology itself. Compound plates were incubated for 2 hours as above with buffer only.
The AlphaScreen beads were added as above except biotin-AviTag-GST was substituted for the RBD. Samples were read and analyzed as above.

T1 sequence (P01116 1-169 isoform P01116-2 G12C/C51S/C80L/C118S): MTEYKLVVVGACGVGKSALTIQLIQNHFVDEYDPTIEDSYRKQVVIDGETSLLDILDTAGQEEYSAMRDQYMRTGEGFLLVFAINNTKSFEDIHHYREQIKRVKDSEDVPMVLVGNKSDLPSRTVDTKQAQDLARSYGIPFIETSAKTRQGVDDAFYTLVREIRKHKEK

SMILES	pIC50
C=CC(=O)N1CCN(c2nc(OC[C@@H]3CCCN3C)nc3c(F)c(-c4cccc5cccc(Cl)c45)ncc23)CC12COC2 [Example 1, (S)-1-(8-(7-(8-chloronaphthalen-1-yl)-8-fluoro-2-((1-methylpyrrolidin-2-yl)methoxy)pyrido[4,3-d]pyrimidin-4-yl)-2-oxa-5,8-diazaspiro[3.5]nonan-5-yl) prop-2-en-1-one]	6.30 to 7.00
Cc1nccc(/C=C/C(=O)N2CCN(c3nc(OC[C@@]45CCCN4C[C@H](F)C5)nc4c(F)c(-c5cccc6cccc(Cl)c56)ncc34)CC23COC3)n1 [Example 2, (E)-1-(8-(7-(8-chloronaphthalen-1-yl)-8-fluoro-2-(((2R,7aS)-2-fluorotetrahydro-1H-pyrrolizin-7a(5H)-yl)methoxy)pyrido[4,3-d]pyrimidin-4-yl)-2-oxa-5,8-diazaspiro[3.5]nonan-5-yl)-3-(2-methylpyrimidin-4-yl) prop-2-en-1-one]	6.30 to 7.00
Cc1nccc(/C=C/C(=O)N2CCN(c3nc(OCC45CCCN4CCC5)nc4c(F)c(-c5cccc6cccc(Cl)c56)ncc34)CC23COC3)n1 [Example 7, (E)-1-(8-(7-(8-chloronaphthalen-1-yl)-8-fluoro-2-((tetrahydro-1H-pyrrolizin-7a(5H)-yl)methoxy)pyrido[4,3-d]pyrimidin-4-yl)-2-oxa-5,8-diazaspiro[3.5]nonan-5-yl)-3-(2-methylpyrimidin-4-yl) prop-2-en-1-one]	6.30 to 7.00
Cc1nccc(/C=C/C(=O)N2CCN(c3nc(OCC45CCCN4CCC5)nc4c(F)c(-c5cccc6ccc(F)c(F)c56)ncc34)CC23COC3)n1 [Example 10, (E)-1-(8-(7-(7,8-difluoronaphthalen-1-yl)-8-fluoro-2-((tetrahydro-1H-pyrrolizin-7a(5H)-yl)methoxy)pyrido[4,3-d]pyrimidin-4-yl)-2-oxa-5,8-diazaspiro[3.5]nonan-5-yl)-3-(2-methylpyrimidin-4-yl) prop-2-en-1-one]	6.30 to 7.00
Cc1nccc(/C=C/C(=O)N2CCN(c3nc(OCC45CCCN4CCC5)nc4c(F)c(-c5cccc6ccc(F)c(Cl)c56)ncc34)CC23COC3)n1 [Example 11, (E)-1-(8-(7-(8-chloro-7-fluoronaphthalen-1-yl)-8-fluoro-2-((tetrahydro-1H-pyrrolizin-7a(5H)-yl)methoxy)pyrido[4,3-d]pyrimidin-4-yl)-2-oxa-5,8-diazaspiro[3.5]nonan-5-yl)-3-(2-methylpyrimidin-4-yl) prop-2-en-1-one]	6.30 to 7.00
O=C(/C=C/CN1CCOCC1)N1CCN(c2nc(OC[C@@]34CCCN3C[C@H](F)C4)nc3c(F)c(-c4cccc5cccc(Cl)c45)ncc23)CC12COC2 [Example 12, (E)-1-(8-(7-(8-chloronaphthalen-1-yl)-8-fluoro-2-(((2R,7aS)-2-fluorotetrahydro-1H-pyrrolizin-7a(5H)-yl)methoxy)pyrido[4,3-d]pyrimidin-4-yl)-2-oxa-5,8-diazaspiro[3.5]nonan-5-yl)-4-morpholinobut-2-en-1-one]	≤ 6.30

Second part, the compound after the results:

pIC50	SMILES
7.00 to 8.00	CN(C/C=C/C(=O)N1CCN(c2nc(OC[C@@]34CCCN3C[C@H](F)C4)nc3c(F)c(-c4cccc5cccc(Cl)c45)ncc23)CC12COC2)CC1COC1 [Example 3, (E)-1-(8-(7-(8-chloronaphthalen-1-yl)-8-fluoro-2-(((2R,7aS)-2-fluorotetrahydro-1H-pyrrolizin-7a(5H)-yl)methoxy)pyrido[4,3-d]pyrimidin-4-yl)-2-oxa-5,8-diazaspiro[3.5]nonan-5-yl)-4-(methyl(oxetan-3-ylmethyl)amino)but-2-en-1-one]
> 8.00	O=C(/C=C/CN1[C@@H]2CC[C@H]1COC2)N1CCN(c2nc(OC[C@@]34CCCN3C[C@H](F)C4)nc3c(F)c(-c4cccc5cccc(Cl)c45)ncc23)CC12COC2 [Example 4, (E)-4-((1R,5S)-3-oxa-8-azabicyclo[3.2.1]octan-8-yl)-1-(8-(7-(8-chloronaphthalen-1-yl)-8-fluoro-2-(((2R,7aS)-2-fluorotetrahydro-1H-pyrrolizin-7a(5H)-yl)methoxy)pyrido[4,3-d]pyrimidin-4-yl)-2-oxa-5,8-diazaspiro[3.5]nonan-5-yl) but-2-en-1-one]
7.00 to 8.00	Cc1nccc(/C=C/C(=O)N2CCN(c3nc(OC[C@@]45CCCN4C[C@H](F)C5)nc4c(F)c(-c5cccc6ccc(F)c(F)c56)ncc34)CC23COC3)n1 [Example 5, (E)-1-(8-(7-(7,8-difluoronaphthalen-1-yl)-8-fluoro-2-(((2R,7aS)-2-fluorotetrahydro-1H-pyrrolizin-7a(5H)-yl)methoxy)pyrido[4,3-d]pyrimidin-4-yl)-2-oxa-5,8-diazaspiro[3.5]nonan-5-yl)-3-(2-methylpyrimidin-4-yl) prop-2-en-1-one]
7.00 to 8.00	Cc1nccc(/C=C/C(=O)N2CCN(c3nc(OC[C@@]45CCCN4C[C@H](F)C5)nc4c(F)c(-c5cccc6ccc(F)c(Cl)c56)ncc34)CC23COC3)n1 [Example 6, (E)-1-(8-(7-(8-chloro-7-fluoronaphthalen-1-yl)-8-fluoro-2-(((2R,7aS)-2-fluorotetrahydro-1H-pyrrolizin-7a(5H)-yl)methoxy)pyrido[4,3-d]pyrimidin-4-yl)-2-oxa-5,8-diazaspiro[3.5]nonan-5-yl)-3-(2-methylpyrimidin-4-yl) prop-2-en-1-one]
7.00 to 8.00	CO[C@@H]1CCN(C/C=C/C(=O)N2CCN(c3nc(OC[C@@]45CCCN4C[C@H](F)C5)nc4c(F)c(-c5cccc6ccc(F)c(Cl)c56)ncc34)CC23COC3)C1 [Example 8, (E)-1-(8-(7-(8-chloro-7-fluoronaphthalen-1-yl)-8-fluoro-2-(((2R,7aS)-2-fluorotetrahydro-1H-pyrrolizin-7a(5H)-yl)methoxy)pyrido[4,3-d]pyrimidin-4-yl)-2-oxa-5,8-diazaspiro[3.5]nonan-5-yl)-4-((R)-3-methoxypyrrolidin-1-yl) but-2-en-1-one]
> 8.00	O=C(/C=C/CN1C[C@H]2C[C@@H]1CO2)N1CCN(c2nc(OC[C@@]34CCCN3C[C@H](F)C4)nc3c(F)c(-c4cccc5ccc(F)c(Cl)c45)ncc23)CC12COC2 [Example 9, (E)-4-((1R,4R)-2-oxa-5-azabicyclo[2.2.1]heptan-5-yl)-1-(8-(7-(8-chloro-7-fluoronaphthalen-1-yl)-8-fluoro-2-(((2R,7aS)-2-fluorotetrahydro-1H-pyrrolizin-7a(5H)-yl)methoxy)pyrido[4,3-d]pyrimidin-4-yl)-2-oxa-5,8-diazaspiro[3.5]nonan-5-yl) but-2-en-1-one]
7.00 to 8.00	O=C(/C=C/CN1C[C@H]2C[C@@H]1CO2)N1CCN(c2nc(OC[C@@]34CCCN3C[C@H](F)C4)nc3c(F)c(-c4cccc5cccc(Cl)c45)ncc23)CC12COC2 [Example 13, (E)-4-((1R,4R)-2-oxa-5-azabicyclo[2.2.1]heptan-5-yl)-1-(8-(7-(8-chloronaphthalen-1-yl)-8-fluoro-2-(((2R,7aS)-2-fluorotetrahydro-1H-pyrrolizin-7a(5H)-yl)methoxy)pyrido[4,3-d]pyrimidin-4-yl)-2-oxa-5,8-diazaspiro[3.5]nonan-5-yl) but-2-en-1-one]
7.00 to 8.00	O=C(/C=C/CN1CC2CC(C1)O2)N1CCN(c2nc(OC[C@@]34CCCN3C[C@H](F)C4)nc3c(F)c(-c4cccc5cccc(Cl)c45)ncc23)CC12COC2 [Example 14, (E)-4-(6-oxa-3-azabicyclo[3.1.1]heptan-3-yl)-1-(8-(7-(8-chloronaphthalen-1-yl)-8-fluoro-2-(((2R,7aS)-2-fluorotetrahydro-1H-pyrrolizin-7a(5H)-yl)methoxy)pyrido[4,3-d]pyrimidin-4-yl)-2-oxa-5,8-diazaspiro[3.5]nonan-5-yl) but-2-en-1-one]
